From ChEMBL document CHEMBL5108024, “New C-6 functionalized quinoline NorA inhibitors strongly synergize with ciprofloxacin against planktonic and biofilm growing resistant Staphylococcus aureus strains” (Eur J Med Chem, 2022) come the findings set out here.

Data set [1] deals with Staphylococcus aureus. As to the kind of experiment: Antibacterial activity against Staphylococcus aureus K2378 harbouring norA promoting and coding region assessed as inhibition of bacterial growth by broth microdilution method. In kind it is functional.
The subject of data set [2] is Staphylococcus aureus. As to the kind of experiment: Synergistic antibacterial activity against ciprofloxacin-resistant Staphylococcus aureus 1199B overexpressing norA and harboring A116E grlA mutant assessed as fold reduction in ciprofloxacin MIC at 6.25 uM by broth microdilution method. The format is functional.
A short description of data set [3]: Cytotoxicity against human THP-1 cells assessed as cell viability incubated for 24 hrs by MTT assay. The format is toxicity, cell-based.
Data set [4] is described as follows: Cytotoxicity against human THP-1 cells assessed as cell viability at 3.13 ug/ml incubated for 24 hrs by MTT assay relative to control. The format is toxicity, cell-based. As to conditions: at 3.13 µg/mL, read-out: Activity. A general note: Formazan colour is commonly taken as a measure of viable cells.
For data set [5], the system named is Staphylococcus aureus. In words: Synergistic antibiofilm activity against Staphylococcus aureus 1199B overexpressing norA and harboring A116E grlA mutant assessed as biofilm eradication by measuring fold reduction in ciprofloxacin MBEC at 3.13 ug/ml incubated for 24 hrs by Calgary biofilm device assay. The format is functional. The conditions noted are these: dose 3.13 µg/ml.

Data set [6] is described as follows: Cytotoxicity against human THP-1 cells assessed as cell viability at 12.5 ug/ml incubated for 24 hrs by MTT assay relative to control. In kind it is toxicity, cell-based. The conditions noted are these: at 12.5 µg/mL, read-out: Activity.
A short description of data set [7]: Cytotoxicity against human A549 cells assessed as cell viability at 3.13 ug/ml incubated for 24 hrs by MTT assay relative to control. In kind it is toxicity, cell-based. As to conditions: at 3.13 µg/mL, read-out: Activity.
For data set [8], the system named is Staphylococcus aureus. As to the kind of experiment: Inhibition of EtBr efflux in ciprofloxacin-resistant Staphylococcus aureus 1199B overexpressing norA and harboring A116E grlA mutant assessed as reduction in fluorescence intensity at 10 uM measured for 5 mins by microplate reader analysis relative to control. In kind it is functional.
Data set [9] has as its system Staphylococcus aureus. As to the kind of experiment: Antibacterial activity against ciprofloxacin-susceptible wild type Staphylococcus aureus 1199 assessed as inhibition of bacterial growth by broth microdilution method. In kind it is functional. (Dilution methods test growth across graded concentrations, often in twofold steps.)
Data set [10] relates to Staphylococcus aureus. In words: Antibacterial activity against norA deleted Staphylococcus aureus K1902 assessed as inhibition of bacterial growth by broth microdilution method. In kind it is functional.
For data set [11], the system named is Staphylococcus aureus. In words: Antibacterial activity against ciprofloxacin-resistant Staphylococcus aureus 1199B overexpressing norA and harboring A116E grlA mutant assessed as inhibition of bacterial growth by broth microdilution method. In kind it is functional.
The test system of data set [12] is Staphylococcus aureus. In words: Inhibition of EtBr efflux in ciprofloxacin-resistant Staphylococcus aureus 1199B overexpressing norA and harboring A116E grlA mutant assessed as reduction in fluorescence intensity at 50 uM measured for 5 mins by microplate reader analysis relative to control. The format is functional.
Data set [13] relates to Staphylococcus aureus. As to the kind of experiment: Synergistic antibiofilm activity against wild type Staphylococcus aureus 1199 assessed as biofilm eradication by measuring ciprofloxacin MBEC at 3.13 ug/ml incubated for 24 hrs by Calgary biofilm device assay. As to conditions: dose 3.13 µg/ml. The format is functional.
Data set [14] deals with Staphylococcus aureus. In words: Synergistic antibiofilm activity against Staphylococcus aureus 1199B overexpressing norA and harboring A116E grlA mutant assessed as biofilm eradication by measuring ciprofloxacin MBEC at 3.13 ug/ml incubated for 24 hrs by Calgary biofilm device assay. The format is functional. The conditions noted are these: dose 3.13 µg/ml.
The subject of data set [15] is Staphylococcus aureus. In words: Synergistic antibacterial activity against Staphylococcus aureus K2378 overexpressing norA assessed as fold reduction in ciprofloxacin MIC at 0.2 to 12.5 ug/ml by checkerboard assay. The format is functional. The conditions noted are these: dose 0.2-12.5 µg/ml.
Data set [16] has as its system Staphylococcus aureus. As to the kind of experiment: Synergistic antibacterial activity against Staphylococcus aureus 1199B overexpressing norA and harboring A116E grlA mutant assessed as eight fold minimum potentiating concentration incubated in presence of ciprofloxacin by checkerboard assay. The format is functional.
Data set [17] can be described thus: Cytotoxicity against human A549 cells assessed as cell viability at 12.5 ug/ml incubated for 24 hrs by MTT assay relative to control. The format is toxicity, cell-based. As to conditions: at 12.5 µg/mL, read-out: Activity.
The test system of data set [18] is Staphylococcus aureus. In words: Synergistic antibiofilm activity against wild type Staphylococcus aureus 1199 assessed as biofilm eradication by measuring fold reduction in ciprofloxacin MBEC at 3.13 ug/ml incubated for 24 hrs by Calgary biofilm device assay. In kind it is functional. The conditions noted are these: dose 3.13 µg/ml.

Values joined by “and” are separate entries in the source; they are usually repeats but may differ in a detail not shown here. Equal entries are not always repeated.

On to `CCCOc1ccc(-c2cc(OCCN3CCCCC3)c3cc(Oc4ccccc4)ccc3n2)cc1`, for which the MIC (usually the lowest concentration found to suppress growth) with Staphylococcus aureus [1] is above 50 µg/mL; in the data set on Staphylococcus aureus [9], above 50 µg/mL; in the data set with Staphylococcus aureus [10], above 50 µg/mL; with Staphylococcus aureus [11], > 50 µg/mL and > 518 µM. Further, the “fold change (FC)” value in the data set with Staphylococcus aureus [2] is 8; in the data set on Staphylococcus aureus [5], 512; in the data set on Staphylococcus aureus [15], 4; in the data set with Staphylococcus aureus [18], 286. The cytotoxic concentration (CC50) (as a rule, the concentration that lowers cell viability or growth by half) at 24 h in data set [3] was above 3.13 µg/mL. In addition, the viability at 24 h, 3.13 ug/ml is 87.9% in data set [4] and 100% in [7]. The viability at 24 h, 12.5 ug/ml in data set [6] was found to be 21.8%; in data set [17], 100%. Also, the inhibition (commonly the percentage by which the read-out fell short of the control) in the data set on Staphylococcus aureus [8] was 65.6%; in the data set on Staphylococcus aureus [12], 84.1%. Further, the MBEC in the data set with Staphylococcus aureus [13] was 0.07 µg/mL; in the data set on Staphylococcus aureus [14] it was 1.25 µg/mL. Also, the MPC with Staphylococcus aureus [16] stood at 1.56 µg/mL.
For `CCCOc1ccc(-c2cc(OCCN3CCCCCC3)c3cc(OC(F)F)ccc3n2)cc1`, in the data set with Staphylococcus aureus [12], the inhibition amounted to 70.7%.
Still for that read-out and setting: the figure for `CCCOc1ccc(-c2cc(OCCN(CC)CC)c3cc(Br)ccc3n2)cc1` is 63.4%.
In the case of `CCCOc1ccc(-c2cc(OCCN3CCCCCC3)c3cc(Br)ccc3n2)cc1`, the inhibition in the data set on Staphylococcus aureus [12] stood at 76.4%.
For `CCCOc1ccc(-c2cc(OCCN(CC)CC)c3cc(OC(C)C)ccc3n2)cc1`, the inhibition with Staphylococcus aureus [12] worked out at 43.7%.
For `CCCOc1ccc(-c2cc(OCCN3CCCCC3)c3cc(OC(C)C)ccc3n2)cc1`, the inhibition with Staphylococcus aureus [12] amounted to 65.3%.
Same read-out and setting: for `CCCOc1ccc(-c2cc(OCCN3CCCCC3)c3cc(NCc4ccccc4)ccc3n2)cc1` the value was 40.6%; for `CCCOc1ccc(-c2cc(OCCN(CC)CC)c3cc(C#N)ccc3n2)cc1`, 77.8%.
Consider `CCCOc1ccc(-c2cc(OCCN3CCCCC3)c3cc(SC)ccc3n2)cc1`, for which the “fold change (FC)” value with Staphylococcus aureus [2] was “>=8”. Moreover, the values for the inhibition with Staphylococcus aureus [8] and in the data set on Staphylococcus aureus [12] were 80.2% and 79.9%, respectively. Moreover, the minimal inhibitory concentration (MIC) in the data set on Staphylococcus aureus [9] was above 50 µg/mL; in the data set on Staphylococcus aureus [11], > 50 µg/mL and 71.7 µM. Further, the MPC in the data set on Staphylococcus aureus [16] amounted to 6.25 µg/mL.
With `CCCOc1ccc(-c2cc(OCCN3CCCCC3)c3cc(OCCC)ccc3n2)cc1`, the inhibition with Staphylococcus aureus [12] was determined as 73.9%.
In the case of `CCCOc1ccc(-c2cc(OCCN3CCCCCC3)c3cc(Oc4ccccc4)ccc3n2)cc1`, the inhibition turned out to be 66.8% in the data set on Staphylococcus aureus [8] and 83% in the data set with Staphylococcus aureus [12]. In the data set on Staphylococcus aureus [11], the MIC was above 503 µM.
For `CCCOc1ccc(-c2cc(OCCN3CCCCCC3)c3cc(OC(F)(F)F)ccc3n2)cc1` the same measures were 70.4%, 84.9% and above 512 µM.
Turning to `CCCOc1ccc(-c2cc(OCCN3CCCCCC3)c3cc(SC)ccc3n2)cc1`, the MIC in the data set with Staphylococcus aureus [1] is above 50 µg/mL; with Staphylococcus aureus [9] it was above 50 µg/mL; with Staphylococcus aureus [10], above 50 µg/mL; in the data set with Staphylococcus aureus [11], > 50 µg/mL and 69.5 µM. The “fold change (FC)” value in the data set with Staphylococcus aureus [2] worked out at 8; in the data set with Staphylococcus aureus [5] it was 512; in the data set on Staphylococcus aureus [15], 4; with Staphylococcus aureus [18], 286. Also, in data set [3], the CC50 at 24 h is above 3.13 µg/mL. Further, the viability at 24 h, 3.13 ug/ml in data set [4] was determined as 68.8%; in data set [7], 100%. Further, the viability at 24 h, 12.5 ug/ml was 19.9% in data set [6] and 100% in data set [17]. Moreover, the inhibition was found to be 81.1% in the data set on Staphylococcus aureus [8] and 81.2% with Staphylococcus aureus [12]. Besides, the MBEC with Staphylococcus aureus [13] was 0.07 µg/mL; with Staphylococcus aureus [14], 1.25 µg/mL. Besides, the MPC in the data set with Staphylococcus aureus [16] was determined as 1.56 µg/mL.
In the case of `CCCOc1ccc(-c2cc(OCCN3CCCCC3)c3cc(C(F)(F)F)ccc3n2)cc1`, the “fold change (FC)” value in the data set with Staphylococcus aureus [2] was 8. The inhibition in the data set with Staphylococcus aureus [8] came to 70.1%; in the data set with Staphylococcus aureus [12], 87.4%. The minimal inhibitory concentration (MIC) is above 50 µg/mL in the data set with Staphylococcus aureus [9]; > 50 µg/mL and > 545 µM in the data set on Staphylococcus aureus [11]. The results for the MBEC in the data set with Staphylococcus aureus [13] and in the data set on Staphylococcus aureus [14] were 0.07 µg/mL and above 50 µg/mL, respectively. The MPC in the data set on Staphylococcus aureus [16] amounted to 3.13 µg/mL.
For `CCCOc1ccc(-c2cc(OCCN3CCCCC3)c3cc(Br)ccc3n2)cc1`, the inhibition in the data set on Staphylococcus aureus [12] came out at 71.6%.
Take `CCCOc1ccc(-c2cc(OCCN3CCCCC3)c3cc(OC(F)(F)F)ccc3n2)cc1`: the inhibition was 86.9% in the data set with Staphylococcus aureus [8] and 81.2% in the data set with Staphylococcus aureus [12]. Moreover, the minimal inhibitory concentration (MIC) in the data set on Staphylococcus aureus [11] is above 529 µM.
For `CCCOc1ccc(-c2cc(OCCN3CCCCCC3)c3cc(C#N)ccc3n2)cc1`, the inhibition with Staphylococcus aureus [8] is 86.8%; with Staphylococcus aureus [12], 84.2%. The MIC in the data set with Staphylococcus aureus [11] is above 582 µM.
Regarding `CCCOc1ccc(-c2cc(OCCN3CCCCCC3)c3cc(C(F)(F)F)ccc3n2)cc1`, the MIC in the data set on Staphylococcus aureus [1] is above 50 µg/mL; in the data set with Staphylococcus aureus [9], above 50 µg/mL; in the data set with Staphylococcus aureus [10] it was above 50 µg/mL; in the data set on Staphylococcus aureus [11], > 50 µg/mL and > 529 µM. The “fold change (FC)” value was “>=8” in the data set with Staphylococcus aureus [2], 512 in the data set on Staphylococcus aureus [5], 4 in the data set on Staphylococcus aureus [15] and 286 with Staphylococcus aureus [18]. For the same compound, in [3], the CC50 at 24 h was above 3.13 µg/mL. The viability at 24 h, 3.13 ug/ml in data set [4] stood at 65.4%; in [7] it was 100%. Also, the viability at 24 h, 12.5 ug/ml in data set [6] came to 27%; in [17], 77.1%. For the same compound, the inhibition with Staphylococcus aureus [8] turned out to be 65.6%; in the data set with Staphylococcus aureus [12], 85.7%. For the same compound, the MBEC in the data set on Staphylococcus aureus [13] was determined as 0.07 µg/mL; with Staphylococcus aureus [14], 0.63 µg/mL. Besides, the MPC in the data set on Staphylococcus aureus [16] worked out at 1.56 µg/mL.
As for `CCCOc1ccc(-c2cc(OCCN(CC)CC)c3cc(C(F)(F)F)ccc3n2)cc1`, in the data set on Staphylococcus aureus [12], the inhibition worked out at 73.5%.
Regarding `CCCOc1ccc(-c2cc(OCCN3CCCCC3)c3cc(-c4ccccc4)ccc3n2)cc1`, the inhibition with Staphylococcus aureus [8] was 41.9%; in the data set on Staphylococcus aureus [12] it was 80.6%.
As for `CCCOc1ccc(-c2cc(OCCN(CC)CC)c3cc(OC(F)(F)F)ccc3n2)cc1`, the inhibition in the data set on Staphylococcus aureus [8] is 69.2%; in the data set on Staphylococcus aureus [12] it was 83%. In addition, in the data set on Staphylococcus aureus [11], the MIC was above 541 µM.
For `CCCOc1ccc(-c2cc(OCCN(CC)CC)c3cc(OC(F)F)ccc3n2)cc1`, in the data set with Staphylococcus aureus [12], the inhibition is 71.9%.
On to `CCCOc1ccc(-c2cc(OCCN(CC)CC)c3cc(OCCC)ccc3n2)cc1`, for which, in the data set on Staphylococcus aureus [12], the inhibition stood at 67.1%.
Regarding `CCCOc1ccc(-c2cc(OCCN(CC)CC)c3cc(SC)ccc3n2)cc1`, the inhibition in the data set with Staphylococcus aureus [12] is 53.3%.
In the case of `CCCOc1ccc(-c2cc(OCCN3CCCCC3)c3cc(C#N)ccc3n2)cc1`, the inhibition with Staphylococcus aureus [12] is 77.8%.
Same read-out and setting: the figure for `CCCOc1ccc(-c2cc(OCCN3CCCCCC3)c3cc(OC(C)C)ccc3n2)cc1` is 75.3%.
